# Target: T1, angiotensin II receptor (rabbit aortae membrane preparation) (Oryctolagus cuniculus, UniProt P34976)
# T1 sequence (P34976 1-359): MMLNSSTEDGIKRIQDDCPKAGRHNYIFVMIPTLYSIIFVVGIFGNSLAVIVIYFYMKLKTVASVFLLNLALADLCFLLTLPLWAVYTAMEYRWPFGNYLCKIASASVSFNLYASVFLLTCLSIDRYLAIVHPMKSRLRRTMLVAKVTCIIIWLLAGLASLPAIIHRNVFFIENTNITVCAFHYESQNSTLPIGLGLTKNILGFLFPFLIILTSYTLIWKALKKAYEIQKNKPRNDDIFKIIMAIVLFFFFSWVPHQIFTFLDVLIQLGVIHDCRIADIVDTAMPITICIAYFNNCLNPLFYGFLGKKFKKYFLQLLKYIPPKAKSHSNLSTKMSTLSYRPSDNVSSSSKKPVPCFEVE
# Experiment: Receptor binding assay using rabbit aortae membrane preparation (displacement of 125I-Sar1 Ile8-angiotensin II)
# Conditions: result in words
# Protocol: This assay is also referred to herein as the "IC50 " assay.
# RECEPTOR BINDING ASSAY USING RABBIT AORTAE MEMBRANE PREPARATION
# Three frozen rabbit aortae (obtained from Pel-Freeze Biologicals) were suspended in 5 mM Tris-0.25M Sucrose, pH 7.4 buffer (50 ml) homogenized, and then centrifuged. The mixture was filtered through a cheesecloth and the supernatant was centrifuged for 30 minutes at 20,000 rpm at 4° C. The pellet thus obtained was resuspended in 30 ml of 50 mM Tris-5 mM MgCl2 buffer containing 0.2% Bovine Serum Albumin and 0.2 mg/ml Bacitration and the suspension was used for 100 assay tubes. Samples tested for screening were done in duplicate. To the membrane preparation (0.25 ml) there was added ^125 I-Sar^1 Ile^8 -angiotensin II [obtained from New England Nuclear] (10 ul; 20,000 cpm) with or without the test sample and the mixture was incubated at 37° C. for 90 minutes. The mixture was then diluted with ice-cold 50 mM Tris-0.9% NaCl, pH 7.4 (4 ml) and filtered through a glass fiber filter (GF/B Whatman 2.4" diameter). The filter was soaked in scintillation cocktail (10 ml) and counted for radioactivity using Packard 2660 Tricarb liquid scintillation counter. […]
row,SMILES,A II antagonist activity by the IC50 assay
1,CCCc1nc2c(C)c(O)cnc2n1Cc1ccc(-c2ccccc2-c2nnn[nH]2)cc1 [6-HO-oxidation product],exhibit A II antagonist activity
2,CCCc1nc2c(CO)ccnc2n1Cc1ccc(-c2ccccc2-c2nnn[nH]2)cc1 [7-HOCH2 - oxidation product],exhibit A II antagonist activity
